Source: a melting point compilation (Tetko et al.; mined from patent text by program, amines drawn as free bases though some values may be those of a salt)

Row | Structure (SMILES) | melting point [°C]
1 | N=C(N)Nc1nc(-c2nc(N)n[nH]2)cs1 | 173 to 175
2 | CNC1CCN(c2nncc3cc(OC)c(OC)cc23)CC1 | 194 to 196
3 | CCOC(=O)c1sc(Oc2ccc(F)cc2)c2c1CCc1cnn(C)c1-2 | 94 to 95
4 | CC1=CC(=O)c2nc3n(c2C1=O)CCC3 | 162 to 164
5 | CC(=O)N1CCc2cc(C[C@@H](C)NCCOc3ccccc3OCC(F)(F)F)cc(C(N)=O)c21 | 144 to 146
6 | COc1cc2c3ccc(OC)c(OC)c3n(C(=O)c3ccc(-c4ccccc4)cc3)c2cc1OC | 150 to 153
7 | Oc1ccc2c(c1)C13CCN(CC4CCC4)C(C2)C1CCOC3 (centres undefined) | 197 to 198
8 | N#Cc1ccc([C@H]2CC[C@H](C=O)CC2)cc1 | 57.1
9 | COc1ccc2c(-c3ccccn3)noc2c1Cl | 164 to 166
10 | c1ccc(CN2CCC(Nc3ccc4[nH]ncc4c3)CC2)cc1 | 150 to 152
11 | COc1cc(Nc2c(C#N)cnc3cc4c(cc23)ncn4CCN2CCOCC2)c(C)cc1Cl | 246 to 248
12 | N#CC(C#N)C(c1cccc2ccccc12)c1cccc2ccccc12 | 179 to 181
13 | COc1cc(OC)c2c(c1)OCC(CNCCCOc1cccc(N)c1)O2 (centres undefined) | 123 to 128
14 | O=S1(=O)NCN(C2CC2)c2cc(F)c(Cl)cc21 | 155 to 158
15 | CC1NC(=O)C2=C1c1ccc(Cl)cc1C(c1ccccc1Cl)=NC2 (centres undefined) | 239 to 241
16 | COc1ccc(C(=O)c2cc3cc(OC)ccc3[nH]2)cc1 | 155 to 158
17 | Cc1nc(-c2ccccc2)oc1C(N)=O | 187 to 190
18 | N#Cc1cccc2c1NCC2 | 66 to 67
19 | Cc1ccc2cc(NS(=O)(=O)c3cccc(Cl)c3C)ccc2n1 | 178
20 | O=C1C=C(c2c[nH]c3ccccc23)C(=O)O1 | 210 to 214
21 | COc1ccc(C(C#N)C(=O)Cc2ccccc2)cc1 (centres undefined) | 115 to 116
22 | Cc1ccc2oc(=O)c(NC(=O)Nc3ccc(F)cc3F)c(-c3ccccc3C)c2c1 | 213 to 214
23 | Cn1cc(C2=C(c3c4n(c5ccccc35)CCC(C(N)=O)C4)C(=O)OC2=O)c2ccccc21 (centres undefined) | 307 to 309
24 | O=c1[nH]c2cc(Sc3cccc4cnccc34)c([N+](=O)[O-])cc2[nH]1 | > 270
25 | CN1CCN(c2cc(Cl)cc3c2c(=O)n(Cc2cccc(Br)c2)c(=O)n3Cc2ccccc2)CC1 | 154 to 157

Row | Structure (SMILES) | melting point [°C]
26 | Nc1ccc(C#Cc2cnn3c(C4CC4)cc(-c4ccc(C(F)(F)F)cc4)nc23)cn1 | 228 to 231
27 | Cc1c(-c2cccs2)nn2cc[nH]c12 | 205 to 208
28 | CC(C)n1cc2c3c(cccc31)C1CC(C(=O)NCCc3c[nH]cn3)CN(C)C1C2 (centres undefined) | 83 to 86
29 | Oc1ccc(CN2CCCCC2)c2cccnc12 | 96
30 | C#CCOc1cc(Oc2ccc(Cl)cc2Cl)ncn1 | 107
31 | O=C1CNC(=O)N1C1CCNCC1 | 214 to 217
32 | O=C1OC(Br)c2cc(Br)ccc21 (centres undefined) | 100
33 | Nc1ncnc2cc(-c3ccc(C(F)(F)F)cc3)sc12 | 181 to 194
34 | O=C1CCCc2ccc(=O)[nH]c21 | 253
35 | Cc1nnc(OC[C@H]2CN(c3ccc(C4=CCOCC4)c(F)c3)C(=O)O2)o1 | 146 to 147
36 | CC(=O)NC(NCC(=O)OCc1ccccc1)C(=O)NCc1ccccc1 (centres undefined) | 133 to 135
37 | O=Cc1cc(N2C(=O)C3=C(CCCC3)C2=O)ccc1Cl | 140 to 141
38 | Cc1c(NC(=O)c2ccc(-c3ccccc3)cc2F)ccc2cc(CN3CCCC3)cnc12 | 166 to 168
39 | O=C1C(=O)N2CCCc3cc(Cl)cc1c32 | 188 to 189
40 | O=C(Nc1ccccc1)Nc1cnc(-c2ccccc2)nc1-c1ccccc1Cl | 195 to 198
41 | C[C@@H](c1ccc(-c2[nH]nnc2Cl)cc1)[C@](O)(Cn1cncn1)c1ccc(F)cc1F | 113 to 115
42 | Cc1cc2c(c3c1C(c1ccc(C(C)C)cc1)CO3)CCCC2 (centres undefined) | 54 to 55
43 | CCCCCCCCCCCCON(Cc1ccccc1)C(c1ccccc1)P(=O)(OCCCCCCCCCCCC)OCCCCCCCCCCCC (centres undefined) | 38 to 40
44 | COC(=S)c1cc(N)cc(N)c1C | 102 to 104
45 | O=C1c2cc3nnn(Cc4cccnc4)c(=O)c3cc2OC2CCCN12 (centres undefined) | 203 to 205
46 | O=C1CCC2=C(CCc3c(Cl)cccc32)N1 | 252 to 253
47 | CS(=O)c1ncc(Br)cn1 (centres undefined) | 90
48 | Nc1cc(-c2c[nH]c3ncccc23)c2ccccc2n1 | 244
49 | Fc1cccc(SCc2nnc(-c3ccc4c(c3)CCO4)o2)c1 | 55 to 56
50 | CCCOC(=NC#N)c1ccc(N)nc1 | 150

Further lines, results first:

Row | melting point [°C] | Structure (SMILES)
51 | 54.5 to 56 | Oc1ccc(C2CC2(Cl)Cl)cc1 (centres undefined)
52 | 74 to 80 | COC(=O)c1ccccc1OCCCn1c(C(=O)C2CCN(CCC3(c4ccccc4)CCN(C(=O)c4cc(OC)c(OC)c(OC)c4)C3)CC2)nc2ccccc21 (centres undefined)
53 | 89 | O=C(NO)C1(S(=O)(=O)c2ccc(OCc3ccccc3)cc2)CCN(Cc2ccccc2)CC1
54 | 128 to 129 | COC(=O)Cc1ccc2nc(Nc3ccccc3C)oc2c1
55 | 56 to 57 | CCOC(=O)C(Cc1ccc(C(F)(F)F)c(F)c1)C(=O)c1ccc(F)cc1 (centres undefined)
56 | 214 to 215 | O=C(NNS(=O)(=O)c1ccccc1)c1ccc(NCc2ccccc2)cc1
57 | 131 to 133 | Cc1csc2ncc(C(C)(O)CCc3ccccc3)n12 (centres undefined)
58 | 99 to 122 | O=C(Nc1ccc(F)c(CO)c1)c1ccccn1
59 | 118 to 120 | CCOC(=O)c1cnc2n(CC)c3ccccc3n2c1=O
60 | 158 to 160 | CN(C)S(=O)(=O)n1c(C(=S)NC(O)C(Cl)(Cl)Cl)nc2cc(Cl)c(Cl)cc21 (centres undefined)
61 | 41 to 42 | C=CCCn1cnc2c1c(=O)n(CCCC)c(=O)n2CCCC
62 | 161 to 162 | CC(NC(=O)CC(CNC(=O)OC(C)(C)C)c1ccc(Cl)c(Cl)c1)c1ccccc1 (centres undefined)
63 | 180 to 181 | CCC1(CC)OC(=S)Nc2ccc(-c3cccc([N+](=O)[O-])c3)cc21
64 | 151 to 152 | CC(C)(C)OC(=O)CN1CC(c2cccs2)SCC(N2C(=O)c3ccccc3C2=O)C1=O (centres undefined)
65 | 190 to 193 | CNC(=S)NS(=O)(=O)c1cc(CCNC(=O)c2cc(Cl)ccc2OC)ccc1OC
66 | 208 to 211 | COc1ccc(C(=O)Nc2ccc(F)cc2)cc1NS(=O)(=O)c1ccc([N+](=O)[O-])cc1
67 | 102 to 103 | CCCOc1cccc(CO)c1-c1ccc(OC)cc1O
68 | 164 | CN(C)C(=O)Nc1cc(Cl)ccc1O
69 | 143 to 150 | COc1cc2c(cc1OC)N(C(=O)OCc1ccccc1)C(C)C(=CN)C2=O (centres undefined)
70 | 105 to 106 | COCOc1ccc(CCNC(=O)/C(C#N)=C/c2cccnc2)cc1
71 | 90 to 92 | CC(C)NCC(O)COC1c2ccccc2C(=O)N1c1ccc(Cl)cc1 (centres undefined)
72 | 144 | C=C(C(=O)O)c1ccccc1OC
73 | 269 to 270 | CC(=O)Nc1ccc(C2=NNC(=O)C3CC23)cc1 (centres undefined)
74 | 78 to 80 | CCN(CC)C(C)CN1CCc2c(c(=O)oc3cc(C)c(Cl)cc23)C1 (centres undefined)
75 | 163 to 165 | CC1(C)CC1C(=O)NC(=CCCC(=O)O)C(=O)O (centres undefined)
76 | 105 to 107 | CCC(Oc1cc(C)c(Cl)c(C)c1)C(=O)NCc1cccs1 (centres undefined)
77 | 88 to 90 | CC(C)(C)c1ccc2c(c1)OCC(NNc1ncnc3c1ncn3C1OC(CO)C(O)C1O)C2 (centres undefined)

Row | melting point [°C] | Structure (SMILES)
78 | 173 | CC(=O)Oc1ccc2c(c1Cl)Sc1ccccc1N2
79 | 108 to 111 | COc1ccc(OC)c(CC(NC(=O)CC(C2CCCCC2)C2CCCCC2)C(=O)OC(C)(C)C)c1 (centres undefined)
80 | 30 to 32 | CCCOC(=O)Cc1ccc2c(c1)C(=O)c1ccccc1CO2
81 | 114 to 115 | Cc1ccc(C)c(OCCCC(C)(C)C(=O)Nc2cccc(C3=NCCCO3)c2)c1
82 | 81 to 83 | CCOC(=O)C(=Cc1ccc(OC)c(O)c1)C(=O)OCC
83 | 106 to 114 | NC(=O)NN=Cc1ccc(N(c2ccccc2)c2ccccc2)cc1
84 | 318 to 319 | O=C1Cn2c(nc3ccccc3c2=O)-c2ccccc2N1
85 | 153 to 154 | Cn1c(NCCCOc2cccc(CN3CCCCC3)c2)nc2ccccc21
86 | 198 to 203 | CCCCNc1ncc(C(=O)c2ccc(N)c([N+](=O)[O-])c2)s1
87 | 57 | COC(CCCCC(N)=O)OC
88 | 153 | CCCCCCCCCCCCCCC(=O)Oc1ccc2cc(C(=N)N)ccc2c1
89 | 145 to 147 | COc1ccc2nc(COc3ccc(NC(C)=O)cc3)sc2c1
90 | 200 | CCC(=O)NN=C(Nc1ccc([N+](=O)[O-])cc1)c1ccc(OC)cc1
91 | 218 to 220 | O=C(Nc1cccc2c1C(=O)c1c-2n[nH]c1C1CCN(C(=O)c2cccs2)CC1)NN1CCOCC1
92 | 186 to 188 | CCCC(=O)c1cnc2c(OC)cccc2c1Nc1cccc(CO)c1C
93 | 131 to 133 | C=C1CCC2C3CCC4CC(O)C(OC)CC4(C)C3CCC12C (centres undefined)
94 | 211 to 215 | NS(=O)(=O)c1ccc(NN=C2C(=O)Nc3ccc(C(=O)NCc4ccncc4)cc32)cc1
95 | 138 to 142 | C/C(=C(\C#N)C(N)=S)N1CCCSCC1
96 | 242 to 244 | COc1ccc(-c2cc(CN3C(=O)c4ccccc4C3=O)c(=O)n(CC3CC3)n2)cc1F
97 | 130 | Cc1cc(-n2ccnc2)c2cccc(OCc3c(Cl)ccc(S(=O)(=O)N4CSC[C@H]4C(=O)O)c3Cl)c2n1
98 | 170 to 173 | C/C(=C\C(=O)Nc1ccccc1C(=O)O)c1ccc(OC(F)F)c(OC(F)F)c1
99 | 130 to 140 | O=C(O)c1cc(N2CCCCC2)ccc1[N+](=O)[O-]
100 | 181 to 182 | COc1ccc2c(C)c3n(c2c1)CCCC3NC=O (centres undefined)
101 | 70.1 to 72.8 | CC(Cl)C(=O)NOCc1ccccc1 (centres undefined)
102 | 83 to 85 | CN(C)CCOc1ccc(C2(c3ccccc3)OCCC2c2ccccc2)cc1 (centres undefined)
103 | 143 to 147 | O=C(NCC(C(O)c1ccc([N+](=O)[O-])cc1)N1CCC(Cc2ccccc2)CC1)c1ccccc1 (centres undefined)
104 | 211 to 213 | Cc1nc(-c2ccc(OC(C)C)c([N+](=O)[O-])c2)sc1C(=O)O
